Here are results for 26 molecules from patent US20230045421A1 (priority 2018, published 2023).

Read-outs that look alike come from different tables or passages of the source.

This assay concerns HBV rcDNA. Briefly: HepDE19 assay with bDNA quantitation of HBV rcDNA. The assay is classed as cell-based, hepatitis B virus. The procedure:
HepDE19 Assay with bDNA Quantitation of HBV rcDNA:
HepDE19 cell culture system is a HepG2 (human hepatocarcinoma) derived cell line that supports HBV DNA replication and cccDNA formation in a tetracycline (Tet)-regulated manner and produces HBV rcDNA and a detectable reporter molecule dependent on the production and maintenance of cccDNA (Guo, et al., 2007, J. Virol. 81:12472-12484).
HepDE19 (50,000 cells/well) were plated in 96-well collagen-coated tissue-culture treated microtiter plates in DMEM/F12 medium supplemented with 10% fetal bovine serum, 1% penicillin-streptomycin and 1 μg/mL tetracycline and incubated in a humidified incubator at 37° C. and 5% CO2 overnight. Next day, the cells were switched to fresh medium without tetracycline and incubated for 4 hours at 37° C. and 5% CO2. The cells were treated with fresh Tet-free medium with compounds at concentrations starting at 25 μM and a serial, […], 8-point, titration series in duplicate. The final DMSO concentration in the assay was 0.5%. The plates were incubated for 7 days in a humidified incubator at 37° C. and 5% CO2. Following a 7 day-incubation, the level of rcDNA present in the inhibitor-treated wells was measured using a Quantigene 2.0 bDNA assay kit (Affymetrix, Santa Clara, Calif.) with HBV specific custom probe set and manufacturers instructions. Concurrently, the effect of compounds on cell viability was assessed using replicate plates, plated at a density of 5,000 cells/well and incubated for 4 days, to determine the ATP content as a measure of cell viability using the cell-titer glo reagent (CTG; Promega Corporation, Madison, Wis.) as per manufacturer's instructions. The plates were read using a Victor luminescence plate reader (PerkinElmer Model 1420 Multilabel counter) and the relative luminescence units (RLU) data generated from each well was calculated as % inhibition of the untreated control wells and analyzed using XL-Fit module in Microsoft Excel to determine EC50 and EC90 (bDNA) and CC50 (CTG) values using a 4-parameter curve fitting algorithm.

[1] abbreviates: Hepatitis B virus, HepDE19, HepDE19 assay, inhibition of formation of rcDNA, read-out: DE-19bDNA EC50.
Setting [2] is: read-out: DE-19bDNA EC50, HepDE19 assay, inhibition of formation of relaxed circular DNA (rcDNA), bDNA quantitation.
Where [3] appears, read: HepDE19 assay, inhibition of formation of relaxed circular DNA (rcDNA), bDNA quantitation, read-out: DE-19bDNA EC50.
The mark [4] stands for this setting: read-out: DE-19bDNA EC50, HepDE19 assay, inhibition of formation of rcDNA.
Where [5] appears, read: HepDE19 assay, inhibition of formation of rcDNA, read-out: DE-19bDNA EC50.

In general, EC50 refers to the midpoint of the concentration-response curve. With `CC(C)N(Cc1c[nH]c(=O)c2ccccc12)C(=O)Nc1ccc(F)c(Cl)c1` [Compound 26, 3-(3-Chloro-4-fluorophenyl)-1-isopropyl-1-((1-oxo-1,2-dihydroisoquinolin-4-yl)methyl)urea], under setting [1], the EC50 was determined as 0.43 µM.

With `C[C@@H](c1c[nH]c(=O)c2ccccc12)N(C)C(=O)Nc1ccc(F)c(Cl)c1` [Compound 13, 3-(3-Chloro-4-fluorophenyl)-1-methyl-1-(1-(1-oxo-1,2-dihydroisoquinolin-4-yl)ethyl)urea], the EC50 under setting [1] came out at 4.7 µM.

Consider `CC(c1c[nH]c(=O)c2cc(F)c(F)cc12)N(C)C(=O)Nc1ccc(Cl)cc1` (single isomer, unassigned) [Compound 400, 3-(4-Chlorophenyl)-1-(1-(6,7-difluoro-1-oxo-1,2-dihydroisoquinolin-4-yl)ethyl)-1-methylurea], for which the EC50 under setting [2] is 7.2 µM.

`CC(c1c[nH]c(=O)c2ccccc12)N(C[C@H]1CC[C@@H](O)CC1)C(=O)Nc1ccc(F)c(Cl)c1` (mixture of isomers) [Compound 225, cis-3-(3-Chloro-4-fluorophenyl)-1-((4-hydroxycyclohexyl)methyl)-1-(1-(1-oxo-1,2-dihydroisoquinolin-4-yl)ethyl)urea]: the EC50 under setting [1] amounted to 0.08 µM.

As to `CC(c1c[nH]c(=O)c2c(F)c(F)ccc12)N(C)C(=O)Nc1cccc(F)c1F` (single isomer, unassigned) [Compound 459, 1-(1-(7,8-Difluoro-1-oxo-1,2-dihydroisoquinolin-4-yl)ethyl)-3-(2,3-difluorophenyl)-1-methylurea], the concentration giving a half-maximal response (EC50) under setting [3] was found to be 0.2 µM.

For the molecule `COCCN(Cc1c[nH]c(=O)c2ccccc12)C(=O)Nc1ccc(F)c(Cl)c1` [Compound 50, 3-(3-Chloro-4-fluorophenyl)-1-(2-methoxyethyl)-1-((1-oxo-1,2-dihydroisoquinolin-4-yl)methyl)urea], the 50% effective concentration (EC50) (Hepatitis B virus, HepDE19, read-out: DE-19bDNA EC50 (μM), HepDE19 assay, inhibition of formation of rcDNA) turned out to be 0.47 µM.

Turning to `C[C@H](c1c[nH]c(=O)c2ccccc12)N(C)C(=O)Nc1ccc(F)c(F)c1` [Compound 92, (R)-3-(3,4-Difluorophenyl)-1-methyl-1-(1-(1-oxo-1,2-dihydroisoquinolin-4-yl)ethyl)urea], the half-maximal effective concentration (EC50) under setting [1] was 0.23 µM.

Regarding `CCOCCN(C(=O)Nc1ccc(F)c(Cl)c1)C(C)c1c[nH]c(=O)c2ccccc12` (single isomer, unassigned) [Compound 110, 3-(3-Chloro-4-fluorophenyl)-1-(2-ethoxyethyl)-1-(1-(1-oxo-1,2-dihydroisoquinolin-4-yl)ethyl)urea], the concentration for a half-maximal effect (EC50) under setting [4] is 0.17 µM.

With `CCN(C(=O)Nc1ccc(F)c(Cl)c1)C(c1cnc(OC)c2ccccc12)C(F)(F)F` (single isomer, unassigned) [Compound 75, 3-(3-Chloro-4-fluorophenyl)-1-ethyl-1-(2,2,2-trifluoro-1-(1-methoxyisoquinolin-4-yl)ethyl)urea], the 50% effective concentration (EC50) under setting [1] turned out to be 4.5 µM.

As to `CC(c1cn(C)c(=O)c2cc(F)ccc12)N(C)C(=O)Nc1ccc(F)c(Cl)c1` (single isomer, unassigned) [Compound 303, 3-(3-Chloro-4-fluorophenyl)-1-(1-(7-fluoro-2-methyl-1-oxo-1,2-dihydroisoquinolin-4-yl)ethyl)-1-methylurea], under setting [3], the EC50 came out at 0.02 µM.

On to `CC(c1cn(C)c(=O)c2cc(F)c(F)cc12)N(C)C(=O)Nc1ccc(F)c(Cl)c1` (single isomer, unassigned) [Compound 341, 3-(3-Chloro-4-fluorophenyl)-1-(1-(6,7-difluoro-2-methyl-1-oxo-1,2-dihydroisoquinolin-4-yl)ethyl)-1-methylurea], for which, under setting [3], the half-maximal effective concentration (EC50) was determined as 0.011 µM.

With `CC(c1c[nH]c(=O)c2ccc(Cl)cc12)N(C)C(=O)Nc1ccc(F)c(Cl)c1` (single isomer, unassigned) [Compound 171, 1-(1-(6-Chloro-1-oxo-1,2-dihydroisoquinolin-4-yl)ethyl)-3-(3-chloro-4-fluorophenyl)-1-methylurea], the EC50 under setting [5] stood at 5.4 µM.

On to `CC(c1c[nH]c(=O)c2cc(F)c(F)cc12)N(CCCO)C(=O)Nc1ccc(F)c(Cl)c1` (single isomer, unassigned) [Compound 290, 3-(3-Chloro-4-fluorophenyl)-1-(1-(6,7-difluoro-1-oxo-1,2-dihydroisoquinolin-4-yl)ethyl)-1-(3-hydroxypropyl)urea], for which the half-maximal effective concentration (EC50) under setting [3] was 0.002 µM.

In the case of `CC(c1c[nH]c(=O)c2ccccc12)N(CC1CCOC1)C(=O)Nc1ccc(F)c(Cl)c1` (centres unmarked) [Compound 165], the EC50 under setting [1] worked out at 1.4 µM.

For the molecule `CCN(C(=O)Nc1ccccc1)C(C)c1c[nH]c(=O)c2c(F)c(F)ccc12` (single isomer, unassigned) [Compound 466, 1-(1-(7,8-Difluoro-1-oxo-1,2-dihydroisoquinolin-4-yl)ethyl)-1-ethyl-3-phenylurea], the 50% effective concentration (EC50) under setting [2] was found to be 8.5 µM.

With `CC(c1c[nH]c(=O)c2c(F)cc(F)cc12)N(CCCO)C(=O)Nc1ccc(F)c(Cl)c1` (centres unmarked) [Compound 373, 3-(3-Chloro-4-fluorophenyl)-1-(1-(6,8-difluoro-1-oxo-1,2-dihydroisoquinolin-4-yl)ethyl)-1-(3-hydroxypropyl)urea], where the note is “Hepatitis B virus, HepDE19, HepDE19 assay, inhibition of formation of relaxed circular DNA (rcDNA), bDNA quantitation, read-out: DE-19bDNA EC50”, the EC50 was determined as 2.6 µM.

On to `CC(c1cnc(N(C)C)c2ccccc12)N(C)C(=O)Nc1ccc(F)c(Cl)c1` (single isomer, unassigned) [Compound 234, 3-(3-Chloro-4-fluorophenyl)-1-(1-(1-(dimethylamino)isoquinolin-4-yl)ethyl)-1-methylurea], for which the half-maximal effective concentration (EC50) under setting [5] came to 0.65 µM.

On to `CC(c1c[nH]c(=O)c2ccccc12)N(CCO)C(=O)Nc1ccc(F)c(Cl)c1` (single isomer, unassigned) [Compound 197, 3-(3-Chloro-4-fluorophenyl)-1-(2-hydroxyethyl)-1-(1-(1-oxo-1,2-dihydroisoquinolin-4-yl)ethyl)urea], for which, under setting [5], the EC50 was found to be 0.08 µM.

In the case of `CCCCN(C(=O)Nc1ccc(F)c(Cl)c1)C(C)c1c[nH]c(=O)c2ccccc12` (single isomer, unassigned) [Compound 84, 1-Butyl-3-(3-chloro-4-fluorophenyl)-1-(1-(1-oxo-1,2-dihydroisoquinolin-4-yl)ethyl)urea], the concentration for a half-maximal effect (EC50) under setting [4] turned out to be 0.01 µM.

As to `CC(c1cnc(OCc2ncn(C)n2)c2cc(F)c(F)cc12)N(C)C(=O)Nc1ccc(F)c(Cl)c1` (single isomer, unassigned) [Compound 347, 3-(3-Chloro-4-fluorophenyl)-1-(1-(6,7-difluoro-1-((1-methyl-1H-1,2,4-triazol-3-yl)methoxy)isoquinolin-4-yl)ethyl)-1-methylurea], the 50% effective concentration (EC50) under setting [3] came out at 0.007 µM.

In the case of `COc1ncc(C(CCO)NC(=O)Nc2ccc(F)c(Cl)c2)c2ccccc12` (racemic) [Compound 71, 1-(3-Chloro-4-fluorophenyl)-3-(3-hydroxy-1-(1-methoxyisoquinolin-4-yl)propyl)urea], the 50% effective concentration (EC50) under setting [1] was 4.4 µM.

For the molecule `COCCN(C(=O)Nc1ccc(F)c(Cl)c1)C(C)c1c[nH]c(=O)c2ccccc12` (single isomer, unassigned) [Compound 66, 3-(3-Chloro-4-fluorophenyl)-1-(2-methoxyethyl)-1-(1-(1-oxo-1,2-dihydroisoquinolin-4-yl)ethyl)urea], the EC50 under setting [4] worked out at 0.09 µM.

On to `CC(c1c[nH]c(=O)c2cc(F)c(F)cc12)N(C)C(=O)Nc1ccc(F)c(Cl)c1` (single isomer, unassigned) [Compound 278, 3-(3-Chloro-4-fluorophenyl)-1-(1-(6,7-difluoro-1-oxo-1,2-dihydroisoquinolin-4-yl)ethyl)-1-methylurea], for which the EC50 under setting [1] came to 1 µM.

On to `CC(c1c[nH]c(=O)c2c(F)c(F)ccc12)N(C)C(=O)Nc1cccc(F)c1` (single isomer, unassigned) [Compound 455, 1-(1-(7,8-Difluoro-1-oxo-1,2-dihydroisoquinolin-4-yl)ethyl)-3-(3-fluorophenyl)-1-methylurea], for which the EC50 under setting [2] came out at 6.3 µM.

Consider `CC(c1cn(CCCO)c(=O)c2ccccc12)N(C)C(=O)Nc1ccc(F)c(Cl)c1` (single isomer, unassigned) [Compound 206, 3-(3-Chloro-4-fluorophenyl)-1-(1-(2-(3-hydroxypropyl)-1-oxo-1,2-dihydroisoquinolin-4-yl)ethyl)-1-methylurea], for which the concentration for a half-maximal effect (EC50) under setting [1] turned out to be 0.85 µM.

For `CC(c1cnc(OCc2nc[nH]n2)c2cc(F)c(F)cc12)N(C)C(=O)Nc1ccc(F)c(Cl)c1` (single isomer, unassigned) [Compound 363, 1-(1-(1-((1H-1,2,4-Triazol-3-yl)methoxy)-6,7-difluoroisoquinolin-4-yl)ethyl)-3-(3-chloro-4-fluorophenyl)-1-methylurea], under setting [3], the EC50 turned out to be 0.014 µM.
